Results on four compounds are retold here after patent publication US20260167629A1, “NOVEL INDAZOLE DERIVATIVE OR PHARMACEUTICALLY ACCEPTABLE SALT THEREOF, AND USE THEREOF” (KOREA UNIVERSITY RESEARCH AND BUSINESS FOUNDATION, priority 2022, published 2026).

Molecules are shown by their SMILES.

For data set [1], the system named is MDA-MB-231 cell line. The data set is described as follows: MTS cell viability assay in MDA-MB-231 cell line. The class given is cell-based. Particulars: Homo sapiens, MDA-MB-231, 72 hours. The procedure:
A HER2 positive breast cancer (HER2+BC) cell line, JIMT-1 (cell seeding numbers: 1.0 (JIMT)×10^4 cells/wells (confluency≤30%)) and a triple-negative breast cancer (TNBC) cell line, MDA-MB-231 (cell seeding numbers: 1.0 (M231)×10^4 cells/wells (confluency≤30%) were used in the experiment.
The above cell lines were cultured in Dulbecco's Modified Eagle's Medium (DMEM) or Eagle's minimum Essential Medium (MEM) each containing 10% fetal bovine serum (FBS), streptomycin-penicillin (100 U/ml), and Fungizone (0.625 μg/ml), respectively under 5% CO2, 37° C. environment.
The JIMT-1 cell line and MDA-MB-231 cell line were treated with the indazole derivatives (formulas 1-1 to 1-53) of the present disclosure at a concentration of 10 μM each for 72 hours, and then cell viability was measured using the MTS assay technique. The control group was treated with DMSO as an untreated group (0 μM) of the indazole derivative of the present disclosure.
(§1) Specifically, cells were attached to 96 well plates for 24 hours, and then treated with the indazole derivatives for 72 hours. Thereafter, the cells were chromogenized with MTS for 4 hours, and the absorbance was measured at 490 nm using a Spectramax Plus384 microplate analyzer. The significance between the control group and the experimental group was verified using an unpaired Students t-test (*p<0.01; DMSO control vs indazole series).
HER2-positive breast cancer cell lines, BT474 (cell seeding numbers: 2.0 (JIMT)×10^4 cells/wells (confluency≤30%)) sensitive to trastuzumab, and JIMT-1 (cell seeding numbers: 1.0 (JIMT)×10^4 cells/wells (confluency≤30%)) resistant to trastuzumab, and a triple-negative breast cancer cell line, MDA-MB-231 (cell seeding numbers: 1.0 (M231)×10^4 cells/wells (confluency≤30%)) were used.
The BT474, JIMT-1, and MDA-MB-231 cell lines were treated with compound 18c (formula 1-16) and compound 11k (formula 1-7) at concentrations of 0 (DMSO), 0.1, 0.5, 1, 5, 10, and 20 μM, respectively, for 72 hours, and then cell viability was measured using the MTS assay technique as explained by the description of Experimental Example 1. The cell viability experiment was performed independently three times, and the significance was verified by a One-Way Anova, Bonferroni post-hoc test (*p<0.01; DMSO control vs. compound 18c or compound 11k).
In addition, the JIMT-1 and MDA-MB-231 cell lines were treated with compound 11m (formula 1-9), 11n (formula 1-10) and compound 12k (formula 1-13) at concentrations of 0 (DMSO), 0.1, 1, 5, 10, and 20 μM, respectively, for 72 hours, and then cell viability was measured.
(§2) Meanwhile, triple-negative breast cancer cell lines MDA-MB-231 and BT549, and a mouse breast cancer cell line 4T1 were treated with compound 38 (formula 1-30) at concentrations of 0 (DMSO), 0.1, 0.5, 1, 2, 5, 10, and 20 μM for 72 hours, and then cell viability was measured.
The indazole derivative of the present disclosure was compared with the benzopyran derivative of the related art (KR 10-2304532) in terms of cell viability of the BT474, JIMT-1, and MDA-MB-231 cell lines (Table 1). In this case, the cell lines were treated with the benzopyran derivative at a concentration of 10 μM for 72 hours and the cell lines were treated with the indazole derivative at a concentration of 10 μM for 72 hours, and then the cell viability was measured.
(In general: Tetrazolium dyes change colour on reduction, which living cells bring about.)

The subject of data set [2] is BT549 cell line. Briefly: MTS cell viability assay in BT549 cell line. The class given is cell-based. The note with it: Homo sapiens, BT-549; BT549, 72 hours. How it is done:
as §1, §2

Data set [3] has as its system mouse breast cancer cell line 4T1. The data set is described as follows: MTS cell viability assay in 4T1 cell line. The data set is classed as cell-based. Particulars: 4T1, 72 hours. How it is done:
as §1, §2

The subject of data set [4] is MDA-MB-231 cell line. The data set is described as follows: Annexin V/PI staining, type of cell death, MDA-MB-231. The class given is cell-based. Particulars: MDA-MB-231, Annexin V/PI staining. How it is done: (§3) Meanwhile, triple-negative breast cancer cell lines, MDA-MB-231 and BT549 were treated with compound 38 (formula 1-30), and then the type of cell death was determined by Annexin V/PI staining.

In data set [5] the test system is BT549 cell line. The data set is described as follows: Annexin V/PI staining, type of cell death, BT549. The data set is classed as cell-based. How it is done: as §3
Data set [6] concerns MDA-MB-231 cell line. Briefly: Cell morphology by phase contrast microscopy, MDA-MB-231. Particulars: MDA-MB-231, 5 and 10 μM, 72 hours. The data set is classed as cell-based. How it is done: (§4) MDA-MB-231 and BT549 cell lines were treated with compound 38 (formula 1-30) at concentrations of 0 (DMSO), 5, and 10 μM for 72 hours. Then, the drug-induced cytotoxicity was assessed by observing changes in cell morphology using phase contrast microscopy. The photographs were taken at a magnification of ×200 using phase contrast microscopy.

Data set [7] concerns BT549 cell line. The data set is described as follows: Cell morphology by phase contrast microscopy, BT549. The data set is classed as cell-based. Particulars: BT549, 5 and 10 μM, 72 hours. How it is done: as §4
The test system of a further data set is JIMT-1 cell line. Briefly: MTS cell viability assay in JIMT-1 cell line. The data set is classed as cell-based. Particulars: Homo sapiens, JIMT-1, 72 hours. The procedure:
The control group was treated with DMSO as an untreated group (0 μM) of the indazole derivative of the present disclosure.
Specifically, cells were attached to 96 well plates for 24 hours, and then treated with the indazole derivatives for 72 hours. Thereafter, the cells were chromogenized with MTS for 4 hours, and the absorbance was measured at 490 nm using a Spectramax Plus384 microplate analyzer.
HER2 positive breast cancer (HER2+BC) cell lines, BT474 (cell seeding numbers: 2.4 (BT474)×10^4 cells/wells (confluency≥50%)) sensitive to trastuzumab and JIMT-1 (cell seeding numbers: 1.0 (JIMT-1)×10^4 cells/wells (confluency>30%)) resistant to trastuzumab were used in the experiment.
In this case, the cell lines were treated with the benzopyran derivative at a concentration of 10 μM for 72 hours and the cell lines were treated with the indazole derivative at a concentration of 10 μM for 72 hours, and then the cell viability was measured.

For data set [8], the system named is JIMT-1 breast cancer cell line xenograft. The data set is described as follows: Tumor growth in JIMT-1 xenograft mouse model, combination with paclitaxel. The class given is in vivo, Balb/c nude mice. How it is done:
This experiment was performed in an in vivo environment using a xenograft mouse model transplanted with the JIMT-1 breast cancer cell line.
6-week-old mice (Balb/c nude mice) were purchased and raised in an environment where they could freely access food and water. The mice were acclimated for more than 7 days, and then were transplanted with tumor cells. Tumor cells were injected subcutaneously into the mammary gland tissue of JIMT-1 breast cancer cells at a density of 3×10^6 cells/mL per individual, and when the tumor reached a size of 50 to 100 mm^3, the indazole derivative of the present disclosure was administered intraperitoneally, and the tumor growth was measured.

Data set [9] is described as follows: Toxicity in JIMT-1 xenograft mice, combination with paclitaxel (body weight, AST, ALT, BUN). The data set is classed as in vivo, Balb/c nude mice. The note with it: combination study.

For orientation: IC50 means the midpoint of a concentration-inhibition curve. A higher IC50 goes with weaker potency.

Take `Cc1nn(CCC2CCN(C)CC2)c2cc(NC(=O)c3ccc4c(c3Cl)C=CC(C)(C)O4)ccc12` [compound 38, 5-chloro-2,2-dimethyl-N-(3-methyl-1-(2-(1-methylpiperidin-4-yl)ethyl)-1H-indazol-6-yl)-2H-chromene-6-carboxamide]: the IC50 in the data set with MDA-MB-231 cell line [1] was found to be 3.67 µM; in the data set on BT549 cell line [2], 4.84 µM; in data set [3] it was 1.21 µM. Besides, the “type of cell death (apoptosis)” value with MDA-MB-231 cell line [4] is “early and late apoptosis of cancer cells was induced”; in the data set on BT549 cell line [5] it was “early and late apoptosis of cancer cells was induced”. Besides, the “changes in cell morphology (cytotoxicity)” value with MDA-MB-231 cell line [6] and in the data set on BT549 cell line [7] was “morphological changes in which the cytoplasm shrank” throughout.

`COc1c(C(=O)Nc2ccc3c(C)nn(CCCN4CCN(C)CC4)c3c2)ccc2c1C=CC(C)(C)O2` [compound 11n, 5-methoxy-2,2-dimethyl-N-(3-methyl-1-(3-(4-methylpiperazin-1-yl)propyl)-1H-indazol-6-yl)-2H-chromene-6-carboxamide]: the IC50 amounted to 3.28 µM with JIMT-1 cell line and 3.65 µM in the data set on MDA-MB-231 cell line [1].

On to `COc1c(C(=O)Nc2ccc3cnn(CCC4CCN(C)CC4)c3c2)ccc2c1C=CC(C)(C)O2` [compound 12k, 5-methoxy-2,2-dimethyl-N-(1-(2-(1-methylpiperidin-4-yl)ethyl)-1H-indazol-6-yl)-2H-chromene-6-carboxamide], for which the IC50 in the data set on JIMT-1 cell line worked out at 5.56 µM; with MDA-MB-231 cell line [1] it was 2.05 µM.

As for `CC(=O)O[C@H]1C(=O)[C@@]2(C)[C@H]([C@H](OC(=O)c3ccccc3)[C@]3(O)C[C@H](OC(=O)[C@H](O)[C@@H](NC(=O)c4ccccc4)c4ccccc4)C(C)=C1C3(C)C)[C@]1(OC(C)=O)CO[C@@H]1C[C@@H]2O` [paclitaxel, reference compound], the tumor weight in [8] (measured after tumor resection) came out at 488.333 mg. Further, in [8] (measured at 40 days after drug administration), the tumor volume came to 813.356 mm^3. For the same compound, the “AST and ALT levels, BUN assay” value in [9] (blood of the mouse model) was “levels similar to those of the control group”. Moreover, the body weight result in data set [9] was “remained unchanged”.
